# Assay results published in ChEMBL document CHEMBL1201862, “PubChem BioAssay data set” (2004).
#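 Grown in 96-well plates, cells were treated for 48 hours with each compound at five concentrations. Insufficient inhibition: endpoint recorded as highest concentration tested. GI50 is the concentration that inhibits growth by half.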 Calls of active or inactive are those of the source. Cut-off read from the data, not from the text of the source: active = GI50 up to about 1.1 µM and inactive = higher.
# Assays:
# Assay in all cases: NCI tumour cell line growth inhibition, 48 h
# NCI-H226 = system: NCI-H226
# SNB-19 = system: SNB-19
# HOP-92 = system: HOP-92
# EKVX = system: EKVX
# SF-268 = system: SF-268
# SK-MEL-2 = system: SK-MEL-2
# PC-3 = system: PC-3
# SK-OV-3 = system: SK-OV-3
# OVCAR-4 = system: OVCAR-4
# 786-0 = system: 786-0
# SR = system: SR
# MCF7 = system: MCF7
# NCI/ADR-RES = system: NCI/ADR-RES
# OVCAR-5 = system: OVCAR-5
# HOP-62 = system: HOP-62
# Hs-578T = system: Hs-578T
# NCI-H522 = system: NCI-H522
# CAKI-1 = system: CAKI-1
# OVCAR-3 = system: OVCAR-3
# Malme-3M = system: Malme-3M
# MDA-N = system: MDA-N
# BT-549 = system: BT-549
# ACHN = system: ACHN
# HT-29 = system: HT-29
# RPMI-8226 = system: RPMI-8226
# SN12C = system: SN12C
# SF-539 = system: SF-539
# SF-295 = system: SF-295
# DU-145 = system: DU-145
# MDA-MB-231 = system: MDA-MB-231
# UO-31 = system: UO-31
# MOLT-4 = system: MOLT-4
# IGROV-1 = system: IGROV-1
# SNB-75 = system: SNB-75
# HCT-15 = system: HCT-15
# T47D = system: T47D
# KM12 = system: KM12
# M14 = system: M14
# SK-MEL-28 = system: SK-MEL-28
# U-251 = system: U-251
# HCT-116 = system: HCT-116
# NCI-H23 = system: NCI-H23
# TK-10 = system: TK-10
# COLO 205 = system: COLO 205
# UACC-257 = system: UACC-257
# SK-MEL-5 = system: SK-MEL-5
# A549 = system: A549
# UACC-62 = system: UACC-62
# OVCAR-8 = system: OVCAR-8
# MDA-MB-435 = system: MDA-MB-435
# K562 = system: K562
# NCI-H460 = system: NCI-H460
# RXF 393 = system: RXF 393
# LOX IMVI = system: LOX IMVI
# SW-620 = system: SW-620
# A498 = system: A498
# HL-60 = system: HL-60
# CCRF-CEM = system: CCRF-CEM
# HCC 2998 = system: HCC 2998
structure (smiles),measurement,setting,value
Cc1cc2sc(C)[n+](CCCOS(=O)(=O)[O-])c2cc1C,GI50,NCI-H226,> 100 µM (inactive)
same,GI50,SNB-19,> 100 µM (inactive)
same,GI50,HOP-92,> 100 µM (inactive)
same,GI50,EKVX,> 100 µM (inactive)
same,GI50,SF-268,62.5 µM (inactive)
same,GI50,SK-MEL-2,> 100 µM (inactive)
same,GI50,PC-3,> 100 µM (inactive)
same,GI50,SK-OV-3,> 100 µM (inactive)
same,GI50,OVCAR-4,> 100 µM (inactive)
same,GI50,786-0,> 100 µM (inactive)
same,GI50,SR,66.2 µM (inactive)
same,GI50,MCF7,60.8 µM (inactive)
same,GI50,NCI/ADR-RES,> 100 µM (inactive)
same,GI50,OVCAR-5,> 100 µM (inactive)
same,GI50,HOP-62,> 100 µM (inactive)
same,GI50,Hs-578T,27.9 µM (inactive)
same,GI50,NCI-H522,40.6 µM (inactive)
same,GI50,CAKI-1,> 100 µM (inactive)
same,GI50,OVCAR-3,> 100 µM (inactive)
same,GI50,Malme-3M,79.6 µM (inactive)
same,GI50,MDA-N,> 100 µM (inactive)
same,GI50,BT-549,> 100 µM (inactive)
same,GI50,ACHN,> 100 µM (inactive)
same,GI50,HT-29,> 100 µM (inactive)
same,GI50,RPMI-8226,53 µM (inactive)
same,GI50,SN12C,> 100 µM (inactive)
same,GI50,SF-539,> 100 µM (inactive)
same,GI50,SF-295,> 100 µM (inactive)
same,GI50,DU-145,> 100 µM (inactive)
same,GI50,MDA-MB-231,> 100 µM (inactive)
same,GI50,UO-31,> 100 µM (inactive)
same,GI50,MOLT-4,72.4 µM (inactive)
same,GI50,IGROV-1,> 100 µM (inactive)
same,GI50,SNB-75,> 100 µM (inactive)
same,GI50,HCT-15,> 100000 nM
same,GI50,T47D,58.6 µM (inactive)
same,GI50,KM12,> 100 µM (inactive)
same,GI50,M14,> 100 µM (inactive)
same,GI50,SK-MEL-28,> 100 µM (inactive)
same,GI50,U-251,> 100 µM (inactive)
same,GI50,HCT-116,> 100 µM (inactive)
same,GI50,NCI-H23,> 100 µM (inactive)
same,GI50,TK-10,> 100 µM (inactive)
same,GI50,COLO 205,> 100 µM (inactive)
same,GI50,UACC-257,> 100 µM (inactive)
same,GI50,SK-MEL-5,> 100 µM (inactive)
same,GI50,A549,> 100 µM (inactive)
same,GI50,UACC-62,> 100 µM (inactive)
same,GI50,OVCAR-8,> 100 µM (inactive)
same,GI50,MDA-MB-435,> 100 µM (inactive)
same,GI50,K562,63.4 µM (inactive)
same,GI50,NCI-H460,> 100 µM (inactive)
same,GI50,RXF 393,> 100 µM (inactive)
same,GI50,LOX IMVI,> 100 µM (inactive)
same,GI50,SW-620,> 100 µM (inactive)
same,GI50,A498,> 100 µM (inactive)
same,GI50,HL-60,> 100 µM (inactive)
COc1ccc(C(=O)c2ccc(-n3c4ccccc4c4ccc5c(c43)C(=O)C=CC5=O)cc2)cc1,GI50,CCRF-CEM,367 nM (active)
same,GI50,NCI-H226,17.3 µM (inactive)
same,GI50,SNB-19,4.19 µM (inactive)
same,GI50,HOP-92,1.99 µM (inactive)
same,GI50,EKVX,1.86 µM (inactive)
same,GI50,SF-268,0.647 µM (active)
same,GI50,SK-MEL-2,3.88 µM (inactive)
same,GI50,PC-3,1.5 µM (inactive)
same,GI50,SK-OV-3,13.7 µM (inactive)
same,GI50,OVCAR-4,2.55 µM (inactive)
same,GI50,786-0,0.586 µM (active)
same,GI50,SR,1.32 µM (inactive)
same,GI50,MCF7,0.855 µM (active)
same,GI50,NCI/ADR-RES,2.62 µM (inactive)
same,GI50,OVCAR-5,19.5 µM (inactive)
same,GI50,HOP-62,12.5 µM (inactive)
same,GI50,Hs-578T,1.69 µM (inactive)
same,GI50,NCI-H522,0.217 µM (active)
same,GI50,CAKI-1,0.164 µM (active)
same,GI50,OVCAR-3,1.14 µM (inactive)
same,GI50,MDA-N,2.72 µM (inactive)
same,GI50,BT-549,3.21 µM (inactive)
same,GI50,ACHN,0.8 µM (active)
same,GI50,HT-29,1.06 µM (active)
same,GI50,RPMI-8226,0.794 µM (active)
same,GI50,SN12C,1.45 µM (inactive)
same,GI50,SF-539,2.61 µM (inactive)
same,GI50,SF-295,5.43 µM (inactive)
same,GI50,DU-145,3.1 µM (inactive)
same,GI50,MDA-MB-231,1.94 µM (inactive)
same,GI50,UO-31,0.52 µM (active)
same,GI50,MOLT-4,0.348 µM (active)
same,GI50,IGROV-1,2.61 µM (inactive)
same,GI50,SNB-75,3.66 µM (inactive)
same,GI50,HCT-15,1900 nM
same,GI50,T47D,1.06 µM (active)
same,GI50,KM12,3.68 µM (inactive)
same,GI50,M14,2.53 µM (inactive)
same,GI50,SK-MEL-28,2.99 µM (inactive)
same,GI50,U-251,1.69 µM (inactive)
same,GI50,HCT-116,0.92 µM (active)
same,GI50,NCI-H23,1.7 µM (inactive)
same,GI50,HCC 2998,5.61 µM (inactive)
same,GI50,TK-10,1.43 µM (inactive)
same,GI50,COLO 205,2.89 µM (inactive)
same,GI50,UACC-257,2.54 µM (inactive)
same,GI50,SK-MEL-5,4.27 µM (inactive)
same,GI50,A549,3.17 µM (inactive)
same,GI50,UACC-62,3.03 µM (inactive)
same,GI50,OVCAR-8,1.81 µM (inactive)
same,GI50,MDA-MB-435,1.39 µM (inactive)
same,GI50,K562,0.676 µM (active)
same,GI50,NCI-H460,4.61 µM (inactive)
same,GI50,RXF 393,0.845 µM (active)
same,GI50,LOX IMVI,1.25 µM (inactive)
same,GI50,SW-620,1 µM (active)
same,GI50,A498,1.58 µM (inactive)
same,GI50,HL-60,0.495 µM (active)
